The text below walks through data of patent US9920036B2, “Cyanoamino (aza)benzofuran compounds for the treatment of hepatitis C” (BRISTOL-MYERS SQUIBB COMPANY, priority 2014, dated 2018).

Data set [1] deals with genotype 1b (Con-1) HCV replicon. In words: HCV replicon luciferase assay. The data set is classed as cell-based. The following applies: Hepatitis C virus, 72 h, Huh-7 cells with genotype 1b HCV replicon, Renilla luciferase, 3 days incubation. How it is done: Cell lines. The cell lines used to evaluate compounds consist of a human hepatocyte derived cell line (Huh-7) that constitutively expresses a genotype 1b (Con-1) HCV replicon or a genotype 1b (Con-1) HCV replicon with an asparagine replacing the cysteine at amino acid 316, or a genotype 2a (JFH-1) replicon, containing a Renilla luciferase reporter gene. These cells were maintained in Dulbecco's modified Eagle medium (DMEM) containing 10% FBS, 100 U/mL penicillin/streptomycin and 1.0 mg/mL G418.
HCV replicon luciferase assay. To evaluate compound efficacy, titrated compounds were transferred to sterile 384-well tissue culture treated plates, and the plates were seeded with HCV replicon cells (50 μL at a density of 2.4×10^3 cells/well) in DMEM containing 4% FBS (final DMSO concentration at 0.5%). After 3 days incubation at 37° C., cells were analyzed for Renilla Luciferase activity using the EnduRen substrate (Promega cat #E6485) according to the manufacturer's directions. Briefly, the EnduRen substrate was diluted in DMEM and then added to the plates to a final concentration of 7.5 μM. The plates were incubated for at least 1 h at 37° C. then read on a Viewlux Imager (PerkinElmer) using a luminescence program. The 50% effective concentration (EC50) was calculated using the four-parameter logistic formula noted above.
Compound EC50 data is expressed as A: <100 nM; B=100-1000 nM; C>1000 nM).

Data set [2] deals with HCV. The following applies: cited from earlier work.
Data set [3] deals with HCV. As to conditions: combination therapy; cited from earlier work.

Where two headings read alike, the source gives them in different places.

As for `CCN(C#N)c1cc2oc(-c3ccc(F)cc3)c(C(=O)NC)c2cc1-c1cccc(C(=O)NCC(C)(C)c2ccccc2)c1` [Compound 1001], the EC50 in data set [1] (read-out: EC50 1b (class)) was below 0.1 µM. Consider `CCN(C#N)c1cc2oc(-c3ccc(F)cc3)c(C(=O)NC)c2cc1-c1cccc(C(=O)NCC(F)(F)C(F)(F)C(F)(F)C(F)(F)F)c1` [Compound 1002], for which the results for the concentration giving a half-maximal response (EC50) in data set [1] (read-out: EC50 1b (class)) and in data set [1] (read-out: EC50 (μM) 1b) were below 0.1 µM and 0.047 µM, respectively. As for `CCN(C#N)c1cc2oc(-c3ccc(F)cc3)c(C(=O)NC)c2cc1-c1ccc(OC)c(C(=O)NC(CF)(CF)CF)c1` [Compound 1003], in data set [1] (read-out: EC50 1b (class)), the EC50 is below 0.1 µM.

For the compound `CCN(C#N)c1cc2oc(-c3ccc(F)cc3)c(C(=O)NC)c2cc1-c1cccc(C(=O)NC(C)(C)CC(C)O)c1` (stereo not shown) [Compound 1004], the values for the EC50 in data set [1] (read-out: EC50 1b (class)) and in data set [1] (read-out: EC50 (μM) 1b) were below 0.1 µM and 0.013 µM, respectively.

In the case of `CCN(C#N)c1cc2oc(-c3ccc(F)cc3)c(C(=O)NC)c2cc1-c1cccc(C(=O)NC(C)(C)CO)c1` [Compound 1005], the EC50 in data set [1] (read-out: EC50 1b (class)) was below 0.1 µM. On the same count and under the same terms, for `CCN(C#N)c1cc2oc(-c3ccc(F)cc3)c(C(=O)NC)c2cc1-c1cccc(C(=O)NC(C)(C)COC)c1` [Compound 1006] the value was below 0.1 µM. As to `CCN(C#N)c1cc2oc(-c3ccc(F)cc3)c(C(=O)NC)c2cc1-c1cccc(C(=O)NC(C)(C)C#N)c1` [Compound 1007], the figures for the EC50 in data set [1] (read-out: EC50 1b (class)) and in data set [1] (read-out: EC50 (μM) 1b) were below 0.1 µM and 0.0041 µM, respectively. On to `CCN(C#N)c1cc2oc(-c3ccc(F)cc3)c(C(=O)NC)c2cc1-c1ccc(OC)c(C(=O)NC2(C#N)CCCC2)c1` [Compound 1008], for which the EC50 in data set [1] (read-out: EC50 1b (class)) is below 0.1 µM. The same measure, in the same setting: the figure for `CCN(C#N)c1cc2oc(-c3ccc(F)cc3)c(C(=O)NC)c2cc1-c1ccc(F)c(C(=O)NC2(c3ncccn3)CC2)c1` [Compound 1009] is below 0.1 µM; for `CCN(C#N)c1cc2oc(-c3ccc(F)cc3)c(C(=O)NC)c2cc1-c1cccc(C(=O)NC2(C(F)(F)F)CC2)c1` [Compound 1010] it is below 0.1 µM; for `CCN(C#N)c1cc2oc(-c3ccc(F)cc3)c(C(=O)NC)c2cc1-c1cccc(C(=O)NC(C)(CO)CO)c1` [Compound 1011] it is 0.1 to 1 µM. `CCN(C#N)c1cc2oc(-c3ccc(F)cc3)c(C(=O)NC)c2cc1-c1cccc(C2=NC(C)(C)C(=O)O2)c1` [Compound 1012]: the concentration for a half-maximal effect (EC50) in data set [1] (read-out: EC50 1b (class)) was 0.1 to 1 µM; in data set [1] (read-out: EC50 (μM) 1b) it was 0.36 µM.

Regarding `CCN(C#N)c1cc2oc(-c3ccc(F)cc3)c(C(=O)NC)c2cc1-c1cccc(C(=O)NC2(c3ncccn3)CC2)c1` [Compound 1013], the concentration for a half-maximal effect (EC50) in data set [1] (read-out: EC50 1b (class)) is below 0.1 µM.

In the case of `CCN(C#N)c1cc2oc(-c3ccc(F)cc3)c(C(=O)NC)c2cc1-c1ccc(OC)c(C(=O)NC(C)(C#N)C(C)C)c1` (stereo not shown) [Compound 1014], the EC50 in data set [1] (read-out: EC50 1b (class)) is below 0.1 µM. Still for that read-out and setting: the figure for `CCN(C#N)c1cc2oc(-c3ccc(F)cc3)c(C(=O)NC)c2cc1-c1cccc(C(=O)NC2(C#N)CCC2)c1` [Compound 1015] is below 0.1 µM. On the same count and under the same terms, the figure for `CCN(C#N)c1cc2oc(-c3ccc(F)cc3)c(C(=O)NC)c2cc1-c1cccc(C(=O)NC(C)(C)C(=O)OC)c1` [Compound 1016] is below 0.1 µM. `[2H]C([2H])([2H])C(NC(=O)c1cc(-c2cc3c(C(=O)NC)c(-c4ccc(F)cc4)oc3cc2N(C#N)CC)ccc1OC)(C([2H])([2H])[2H])C([2H])([2H])[2H]` [Compound 1017]: the half-maximal effective concentration (EC50) was below 0.1 µM in data set [1] (read-out: EC50 1b (class)) and 0.0039 µM in data set [1] (read-out: EC50 (μM) 1b). For the compound `CNC(=O)c1c(-c2ccc(F)cc2)oc2cc(N(CCO)S(C)(=O)=O)c(C3CC3)cc12` [HCV-796], the hepatic toxicity result in the data set with HCV [2] (extended dosing of the combination regimens) is “hepatic toxicity observed during extended dosing of the combination regimens”. The “HCV RNA levels in patients” value with HCV [2] (patients, single agent or combined with interferon and ribavirin) was “has shown an ability to reduce HCV RNA levels in patients”. Regarding alpha-interferon and ribavirin, in the data set with HCV [3], the “sustained efficacy in patients” value was 40%.
